Assay results taken from patent US9573887B2, “Naphthalene derivative” (Daito Chemix Corporation, priority 2010, dated 2017).
Where a name gives a salt, the structure may show the parent alone.

Biological target: T1, Mouse VCP (Mus musculus, UniProt Q01853)
T1 construct: histidine tag (N); made in house; host or cells: Sf-9 insect cells (baculovirus vector pVL1392)
Experiment: ATPase activity of purified His-tagged VCP, [γ-32P]ATP, liberated phosphate by liquid scintillation
Type: biochemical
Conditions: compounds of Comparative Examples; determined in the same manner as the Examples
Procedure, shortened: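 Liberated 32P-phosphate, extracted as a molybdate complex and counted by liquid scintillation, was the readout. Reactions used 500 ng Sf-9-expressed, Ni-purified His-VCP (mouse), 100 μM [γ-32P]ATP and varied test concentrations for 10 min at 37° C in HEPES pH 7.4 buffer with Mg2+ and DTT. IC50 derived by curve fitting.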

T1 sequence (Q01853 whole entry): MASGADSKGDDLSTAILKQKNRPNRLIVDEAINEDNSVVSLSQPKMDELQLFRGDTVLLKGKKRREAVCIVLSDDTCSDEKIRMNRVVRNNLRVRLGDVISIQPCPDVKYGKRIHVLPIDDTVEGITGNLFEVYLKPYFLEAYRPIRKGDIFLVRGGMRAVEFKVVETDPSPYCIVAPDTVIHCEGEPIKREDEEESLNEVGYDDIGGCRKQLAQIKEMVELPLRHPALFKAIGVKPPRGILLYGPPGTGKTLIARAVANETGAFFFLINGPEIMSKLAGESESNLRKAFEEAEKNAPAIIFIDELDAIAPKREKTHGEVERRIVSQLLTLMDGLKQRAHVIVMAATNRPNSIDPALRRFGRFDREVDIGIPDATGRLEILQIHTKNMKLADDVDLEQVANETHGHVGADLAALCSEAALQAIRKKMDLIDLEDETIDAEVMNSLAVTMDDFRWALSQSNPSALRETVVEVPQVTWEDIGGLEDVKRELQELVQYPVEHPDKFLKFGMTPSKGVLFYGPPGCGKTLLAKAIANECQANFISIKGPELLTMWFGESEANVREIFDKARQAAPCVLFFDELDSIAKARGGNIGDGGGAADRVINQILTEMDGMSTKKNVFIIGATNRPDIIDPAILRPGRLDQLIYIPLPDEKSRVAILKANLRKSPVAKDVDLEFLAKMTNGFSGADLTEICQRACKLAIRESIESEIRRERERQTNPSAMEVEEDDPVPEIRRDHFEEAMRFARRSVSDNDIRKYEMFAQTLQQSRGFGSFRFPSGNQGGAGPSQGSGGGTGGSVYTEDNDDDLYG

**Q.** For O=[N+]([O-])c1ccc(-c2cccc3c2sc2ccccc23)nc1 [Example 29, sodium salt], which IC50 is on record?
**A.** > 100000 nM

**Q.** Nc1c(-c2ccccc2)cc(S(=O)(=O)O)c2ccccc12 [Example 26, sodium salt] was tested. Which IC50 did it give?
**A.** > 10000 nM

Same assay, conditions: compounds of Examples; ATPase inhibitory activity; 500 ng VCP, 100 μM ATP, 37° C., 10 minutes

**Q.** Which IC50 does the source give for Nc1c(/N=N/c2ccc(F)cc2)cc(S(=O)(=O)O)c2ccccc12 [Example 102, 4-amino-3-(4-fluorophenylazo)naphthalene-1-sulfonic acid sodium salt] here?
**A.** 904 nM

**Q.** For Cc1cc(-c2cccnc2)ncc1/N=N/c1cc(S(=O)(=O)O)c2ccccc2c1N [Example 53, 4-amino-3-(4-methyl-[2,3′]bipyridinyl-5-ylazo)naphthalene-1-sulfonic acid sodium salt], which IC50 is on record?
**A.** 1150 nM

**Q.** With N#C/C(=C\c1ccc(/N=N/c2cc(S(=O)(=O)O)c3ccccc3c2N)cc1)c1ccccc1 [Example 143, 4-amino-3-[4-(2-cyano-2-phenylvinyl)phenylazo]naphthalene-1-sulfonic acid sodium salt] as the compound, how does the IC50 read?
**A.** 1220 nM

**Q.** Which IC50 does the source give for Nc1c(/N=N/c2ccc(Cl)cc2)cc(S(=O)(=O)O)c2ccccc12 [Example 100, 4-amino-3-(4-chlorophenylazo)naphthalene-1-sulfonic acid sodium salt] here?
**A.** 408 nM

**Q.** Cc1cc(/N=N/c2cc(S(=O)(=O)O)c3ccccc3c2N)cnc1-c1ccccc1-c1ccccc1 [Example 86, 4-amino-3-(6-biphenyl-2-yl-5-methylpyridine-3-ylazo)naphthalene-1-sulfonic acid sodium salt] was tested. Which IC50 did it give?
**A.** 552 nM

**Q.** Nc1c(/N=N/c2cccc(OCc3ccccn3)c2)cc(S(=O)(=O)O)c2ccccc12 [Example 137, 4-amino-3-[3-(pyridine-2-ylmethoxy)phenylazo]naphthalene-1-sulfonic acid sodium salt] was tested. Which IC50 did it give?
**A.** 610 nM

**Q.** For Nc1c(/N=N/c2ccc(C(=O)Nc3ccccc3)cc2)cc(S(=O)(=O)O)c2ccccc12 [Example 129, 4-amino-3-(4-phenylcarbamoylphenylazo)naphthalene-1-sulfonic acid sodium salt], which IC50 is on record?
**A.** 1900 nM

**Q.** Which IC50 does the source give for Nc1c(/N=N/c2ccc3ncccc3c2)cc(S(=O)(=O)O)c2ccccc12 [Example 147, 4-amino-3-(quinoline-6-ylazo)naphthalene-1-sulfonic acid sodium salt] here?
**A.** 502 nM

**Q.** Nc1c(/N=N/c2ccc(-c3cccc4ccccc34)nc2)cc(S(=O)(=O)O)c2ccccc12 [Example 38, 4-amino-3-(6-naphthalene-1-ylpyridine-3-ylazo)naphthalene-1-sulfonic acid sodium salt] was tested. Which IC50 did it give?
**A.** 234 nM

**Q.** For CCCCOc1c(OCC)cc(C=O)cc1-c1ccc(/N=N/c2cc(S(=O)(=O)O)c3ccccc3c2N)cn1 [Example 148, 4-amino-3-[6-(2-butoxy-3-ethoxy-5-formylphenyl)pyridine-3-ylazo]naphthalene-1-sulfonic acid sodium salt], which IC50 is on record?
**A.** 1560 nM

**Q.** Which IC50 does the source give for Nc1c(/N=N/c2ccc(-c3c(OCCCNC(=O)c4cccnc4Cl)ccc4c3sc3ccccc34)nc2)cc(S(=O)(=O)O)c2ccccc12 [Example 81, 4-amino-3-[6-(3-{3-[(2-chloropyridine-3-carbonyl)amino]propoxy}dibenzothiophene-4-yl)pyridine-3-ylazo]naphthalene-1-sulfonic acid sodium salt] here?
**A.** 207 nM

**Q.** Nc1c(/N=N/c2ccccc2)cc(S(=O)(=O)O)c2ccccc12 [Example 93, 4-amino-3-phenylazonaphthalene-1-sulfonic acid sodium salt] was tested. Which IC50 did it give?
**A.** 762 nM

**Q.** Nc1c(/N=N/c2ccc(-c3cccc4c3oc3ccccc34)nc2)cc(S(=O)(=O)O)c2ccccc12 [Example 39, 4-amino-3-(6-dibenzofuran-4-ylpyridine-3-ylazo)naphthalene-1-sulfonic acid sodium salt] was tested. Which IC50 did it give?
**A.** 754 nM

**Q.** COc1ccccc1-c1ccc(/N=N/c2cc(S(=O)(=O)O)c3ccccc3c2N)cn1 [Example 25, 4-amino-3-[6-(2-methoxyphenyl)pyridine-3-ylazo]naphthalene-1-sulfonic acid sodium salt] was tested. Which IC50 did it give?
**A.** 300 nM

**Q.** How did the IC50 turn out when Nc1c(/N=N/c2ccccc2F)cc(S(=O)(=O)O)c2ccccc12 [Example 94, 4-amino-3-(2-fluorophenylazo)naphthalene-1-sulfonic acid sodium salt] was run?
**A.** 1110 nM

**Q.** With Cc1ccc(-c2cccc(Cl)c2)c(-c2ccc(/N=N/c3cc(S(=O)(=O)O)c4ccccc4c3N)cn2)c1 [Example 75, 4-amino-3-[6-(3′-chloro-4-methylbiphenyl-2-yl)pyridine-3-ylazo]naphthalene-1-sulfonic acid sodium salt] as the compound, how does the IC50 read?
**A.** 924 nM

**Q.** With Nc1c(/N=N/c2ccc(Br)cc2Br)cc(S(=O)(=O)O)c2ccccc12 [Example 113, 4-amino-3-(2,4-dibromophenylazo)naphthalene-1-sulfonic acid sodium salt] as the compound, how does the IC50 read?
**A.** 266 nM

**Q.** For Cc1ccc(F)cc1-c1ccc(/N=N/c2cc(S(=O)(=O)O)c3ccccc3c2N)cn1 [Example 58, 4-amino-3-[6-(5-fluoro-2-methylphenyl)pyridine-3-ylazo]naphthalene-1-sulfonic acid sodium salt], which IC50 is on record?
**A.** 320 nM

**Q.** Which IC50 does the source give for Cc1cc(C=O)c(OC(C)C)c(-c2ccc(/N=N/c3cc(S(=O)(=O)O)c4ccccc4c3N)cn2)c1 [Example 91, 4-amino-3-[6-(3-formyl-2-isopropoxy-5-methylphenyl)pyridine-3-ylazo]naphthalene-1-sulfonic acid sodium salt] here?
**A.** 212 nM

**Q.** For Nc1c(/N=N/c2ccc(-c3ccccc3OCCCNC(=O)c3cccnc3Cl)nc2)cc(S(=O)(=O)O)c2ccccc12 [Example 69, 4-amino-3-[6-(2-{3-[(2-chloropyridine-3-carbonyl)amino]propoxy}phenyl)pyridine-3-ylazo]naphthalene-1-sulfonic acid sodium salt], which IC50 is on record?
**A.** 90 nM

**Q.** For Nc1c(/N=N/c2ccc(C(F)(F)F)cc2)cc(S(=O)(=O)O)c2ccccc12 [Example 95, 4-amino-3-(4-trifluoromethylphenylazo)naphthalene-1-sulfonic acid sodium salt], which IC50 is on record?
**A.** 393 nM

**Q.** With Nc1c(/N=N/c2ccc(-c3ccccc3Oc3ccccc3)nc2)cc(S(=O)(=O)O)c2ccccc12 [Example 29, 4-amino-3-[6-(2-phenoxyphenyl)pyridine-3-ylazo]naphthalene-1-sulfonic acid sodium salt] as the compound, how does the IC50 read?
**A.** 287 nM

**Q.** How did the IC50 turn out when CC(=O)c1cccc(-c2ccc(/N=N/c3cc(S(=O)(=O)O)c4ccccc4c3N)cn2)c1 [Example 15, 3-[6-(3-acetylphenyl)pyridine-3-ylazo]-4-aminonaphthalene-1-sulfonic acid sodium salt] was run?
**A.** 189 nM

**Q.** With Nc1c(/N=N/c2ccc(-c3ccccc3OCCCN3C(=O)c4ccccc4C3=O)nc2)cc(S(=O)(=O)O)c2ccccc12 [Example 78, 4-amino-3-(6-{2-[3-(1,3-dioxo-1,3-dihydroisoindole-2-yl)propoxy]phenyl}pyridine-3-ylazo)naphthalene-1-sulfonic acid sodium salt] as the compound, how does the IC50 read?
**A.** 402 nM

**Q.** Which IC50 does the source give for COc1cccc(-c2ccc(/N=N/c3cc(S(=O)(=O)O)c4ccccc4c3N)cn2)c1 [Example 32, 4-amino-3-[6-(3-methoxyphenyl)pyridine-3-ylazo]naphthalene-1-sulfonic acid sodium salt] here?
**A.** 428 nM

**Q.** For Nc1c(/N=N/c2ccc(-c3csc4ccccc34)nc2)cc(S(=O)(=O)O)c2ccccc12 [Example 41, 4-amino-3-(6-benzo[b]thiophene-3-ylpyridine-3-ylazo)naphthalene-1-sulfonic acid sodium salt], which IC50 is on record?
**A.** 210 nM

**Q.** Cc1ccc(/N=N/c2cc(S(=O)(=O)O)c3ccccc3c2N)c([N+](=O)[O-])c1 [Example 120, 4-amino-3-(4-methyl-2-nitrophenylazo)naphthalene-1-sulfonic acid sodium salt] was tested. Which IC50 did it give?
**A.** 162 nM

**Q.** With Nc1c(/N=N/c2ccc(F)cc2Cl)cc(S(=O)(=O)O)c2ccccc12 [Example 119, 4-amino-3-(2-chloro-4-fluorophenylazo)naphthalene-1-sulfonic acid sodium salt] as the compound, how does the IC50 read?
**A.** 737 nM

**Q.** How did the IC50 turn out when CC(=O)c1ccccc1-c1ccc(/N=N/c2cc(S(=O)(=O)O)c3ccccc3c2N)cn1 [Example 14, 3-[6-(2-acetylphenyl)pyridine-3-ylazo]-4-aminonaphthalene-1-sulfonic acid sodium salt] was run?
**A.** 178 nM

**Q.** How did the IC50 turn out when Nc1c(/N=N/c2ccc(-c3cccs3)nc2)cc(S(=O)(=O)O)c2ccccc12 [Example 17, 4-amino-3-(6-thiophene-2-ylpyridine-3-ylazo)naphthalene-1-sulfonic acid sodium salt] was run?
**A.** 143 nM

**Q.** Nc1c(/N=N/c2ccc(-c3ccccc3OCCCCCCO)nc2)cc(S(=O)(=O)O)c2ccccc12 [Example 64, 4-amino-3-{6-[2-(6-hydroxyhexyloxy)phenyl]pyridine-3-ylazo}naphthalene-1-sulfonic acid sodium salt] was tested. Which IC50 did it give?
**A.** 324 nM

**Q.** For CCOC(=O)c1ccc(/N=N/c2cc(S(=O)(=O)O)c3ccccc3c2N)cc1 [Example 103, ethyl 4-(1-amino-4-sulfonaphthalene-2-ylazo)benzoate sodium salt], which IC50 is on record?
**A.** 887 nM

**Q.** With Cc1ccc(F)c(-c2ccc(/N=N/c3cc(S(=O)(=O)O)c4ccccc4c3N)cn2)c1 [Example 59, 4-amino-3-[6-(2-fluoro-5-methylphenyl)pyridine-3-ylazo]naphthalene-1-sulfonic acid sodium salt] as the compound, how does the IC50 read?
**A.** 380 nM

**Q.** For Cc1cccc(C)c1-c1ccc(/N=N/c2cc(S(=O)(=O)O)c3ccccc3c2N)cn1 [Example 90, 4-amino-3-[6-(2,6-dimethylphenyl)pyridine-3-ylazo]naphthalene-1-sulfonic acid sodium salt], which IC50 is on record?
**A.** 112 nM

**Q.** Which IC50 does the source give for Nc1c(/N=N/c2ccc(-c3ccccc3O)nc2)cc(S(=O)(=O)O)c2ccccc12 [Example 63, 4-amino-3-[6-(2-hydroxyphenyl)pyridine-3-ylazo]naphthalene-1-sulfonic acid sodium salt] here?
**A.** 807 nM

**Q.** How did the IC50 turn out when Nc1c(/N=N/c2ccc(-c3ccc(Cl)cc3)nc2)cc(S(=O)(=O)O)c2ccccc12 [Example 24, 4-amino-3-[6-(4-chlorophenyl)pyridine-3-ylazo]naphthalene-1-sulfonic acid sodium salt] was run?
**A.** 540 nM
